Data as given in PMC5702387, “The Antifungal Plant Defensin HsAFP1 Is a Phosphatidic Acid-Interacting Peptide Inducing Membrane Permeabilization” (Frontiers in Microbiology, 2017).

How the values were obtained:
Type in all cases: binding
[1] = target: T1, HsAFP1 (Heuchera sanguinea, UniProt P0C8Y5, H32A/R52A); assay: rELISA, immobilised lipid; settings: 12.5 uM peptide; PBS-based blocking buffer pH 7.4; 37 C
T1 construct: mature plant defensin, recombinantly produced in Pichia pastoris and purified
T1 sequence (P0C8Y5 whole entry H32A/R52A): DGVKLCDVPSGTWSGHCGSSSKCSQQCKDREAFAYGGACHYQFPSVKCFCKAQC

[2] = target: T2, HsAFP1 (Heuchera sanguinea, UniProt P0C8Y5); assay: DSC of lipid vesicles (lipid phase transition); settings: PC/PG/PA 75/15/10 vesicles, 0.5 mM; 40 uM HsAFP1; HEPES pH 7, low salt
T2 construct: mature plant defensin, recombinantly produced in Pichia pastoris and purified
T2 sequence (P0C8Y5 whole entry): as the sequence (P0C8Y5 whole entry H32A/R52A) above, with A32H, A52R counted along it

[3] = target: T2, HsAFP1; assay: rELISA, immobilised lipid; settings: 12.5 uM HsAFP1; pH 7.4; 37 C

## phosphatidic acid
[1]
  % reduction of binding vs native HsAFP1: 77%

## CCCCCCCCCCCCCC(=O)OC[C@H](COP(=O)(O)O)OC(=O)CCCCCCCCCCCCC [dimyristoylphosphatidic acid]
[2]
  DSC of lipid vesicles (lipid phase transition): HsAFP1 specifically interacted with vesicles containing PA

## methyl-PA
[3]
  % reduction of binding vs PA: > 75%
